Experimental data from EP0539170A1, “Benzodiazepine derivatives and their use as antagonists of cholecystokinin and/or gastrin receptors” (priority 1991, dated 1993).
Structures can show the parent of a compound that is named as a salt.

Target: T1, CCK Receptor (Pancreas) (Rattus norvegicus, UniProt P30551)
T1 construct: The whole pancreas was dissected free of fat tissue and was homogenized; from tissue; host or cells: rat pancreas membrane homogenate
T1 sequence (P30551 1-444): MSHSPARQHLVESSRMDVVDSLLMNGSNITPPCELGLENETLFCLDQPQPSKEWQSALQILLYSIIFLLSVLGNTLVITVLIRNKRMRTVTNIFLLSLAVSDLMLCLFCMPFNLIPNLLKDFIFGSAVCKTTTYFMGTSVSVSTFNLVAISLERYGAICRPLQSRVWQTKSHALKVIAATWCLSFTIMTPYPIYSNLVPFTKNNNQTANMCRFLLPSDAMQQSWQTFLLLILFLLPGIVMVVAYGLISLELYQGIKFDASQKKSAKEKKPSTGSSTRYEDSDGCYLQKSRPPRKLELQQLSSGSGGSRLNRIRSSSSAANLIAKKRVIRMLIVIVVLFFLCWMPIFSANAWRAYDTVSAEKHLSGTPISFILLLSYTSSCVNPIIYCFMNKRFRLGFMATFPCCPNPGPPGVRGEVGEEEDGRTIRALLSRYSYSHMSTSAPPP
Test: CCK Receptor Binding (Pancreas), inhibition of specific 125I-CCK-8 binding
Design: species or system Sprague-Dawley rats
Settings: rat whole pancreas membranes; 50 pM 125I-CCK-8; 25°C for 2 hours
Method: CCK-8 sulphated was radiolabelled with ¹²⁵I-Bolton Hunter reagent (2000 Ci/mmole). Receptor binding was performed according to Chang and Lotti (Proc. Natl. Acad. Sci. 83, 4923-4926, 1986) with minor modifications.
Male Sprague-Dawley rats (150-200g) were sacrificed by decapitation. The whole pancreas was dissected free of fat tissue and was homogenized in 25 volumes of ice-cold 10 mM N-2-hydroxyethyl-piperazine-N′-2-ethane sulphonic acid (HEPES) buffer with 0.1% soya bean trypsin inhibitor (pH 7.4 at 25°C) with a Kinematica Polytron. The homogenates were centrifuged at 47,800 g for 10 min. Pellets were resuspended in 10 volumes of binding assay buffer (20mM (HEPES)), 1mM ethylene glycol-bis-(β-aminoethylether-N,N′-tetraacetic acid) (EGTA), 5mM MgCl₂, 150 mM NaCl, bacitracin 0.25 mg/ml, soya bean trypsin inhibitor 0.1 mg/ml, and bovine serum albumin 2 mg/ml pH 6.5 at 25°C) using a Teflon (trademark) homogenizer, 15 strokes at 500 rpm. The homogenate was further diluted in binding assay buffer to give a final concentration of 0.5 mg original wet weight/1 ml buffer. […] All assays were run in duplicate. The reaction mixtures were incubated at 25°C for 2 hours and the reaction terminated by rapid filtration (Brandell 24 well cell harvester) over Whatman GF/C filters, washing 3 x 4 mls with ice-cold 100 Mm NaCl. The radioactivity on the filters was counted with a LKB gamma counter.
Drug displacement studies were performed with at least 10 concentrations of compounds of Formula I and the IC₅₀ values were determined by regression analysis IC₅₀ refers to the concentration of the compound required to inhibit 50% of specific binding of ¹²⁵I-CCK-8.

Row | Structure (SMILES) | IC50 [µM]
1 | Cc1cccc(NC(=O)NC2N=C(N3CCCCCCC3)c3ccccc3N(C)C2=O)c1 (single isomer, unassigned; (+)) [Example 52, (+)-N-[2,3-Dihydro-5-(heptamethyleneimin-1-yl)-1-methyl-2-oxo-1H-1,4-benzodiazepin-3-yl]-N′-[3-methylphenyl] urea hydrochloride] | 0.0117
2 | CN1C(=O)C(NC(=O)Nc2ccc3c(c2)CCC3)N=C(N2CCCCCC2)c2ccccc21 (single isomer, unassigned; (+)) [Example 59, (+)-N-(2,3-Dihydro-5-(homopiperidin-1-yl)-1-methyl-2-oxo-1H-1,4-benzodiazepin-3-yl]-N′-[5-indanyl] urea hydrochloride] | 0.00892
3 | CCc1cccc(NC(=O)NC2N=C(N3CCCCCC3)c3ccccc3N(C)C2=O)c1 (single isomer, unassigned; (+)) [Example 68, (+)-N-[2,3-Dihydro-5-(homopiperidin-1-yl)-1-methyl-2-oxo-1H-1,4-benzodiazepin-3-yl]-N′-[3-ethylphenyl] urea hydrochloride] | 0.00348
4 | CCCN1C(=O)C(NC(=O)Nc2cccc(C)c2)N=C(N2CCSCC2)c2ccccc21 (single isomer, unassigned; (+)) [Example 70, (+)-N-[2,3-Dihydro-2-oxo-1-propyl-5-(thiomorpholin-4-yl)-1H-1,4-benzodiazepin-3-yl]-N′-[3-methylphenyl] urea hydrochloride] | 0.0105
5 | CCCN1C(=O)C(NC(=O)Nc2cccc(C)c2)N=C(N2CCN(C)CC2)c2ccccc21 (single isomer, unassigned; (-)) [Example 24, (-)-N-(2,3-Dihydro-5-(4-methylpiperazin-1-yl)-2-oxo-1-propyl-1H-1,4-benzodiazepin-3-yl]-N′-[3-methylphenyl] urea] | > 3
6 | CCc1cccc(NC(=O)NC2N=C(N3CCN(C)CC3)c3ccccc3N(CC(C)C)C2=O)c1 (single isomer, unassigned; (-)) [Example 26, (-)-N-[2,3-Dihydro-5-(4-methylpiperazin-1-yl)-1-(2-methylpropyl)-2-oxo-1H-1,4-benzodiazepin-3-yl]-N#MIN#-[3-ethylphenyl] urea] | 4.72
7 | Cc1cccc(NC(=O)NC2N=C(N3CCCCCC3)c3ccccc3N(C)C2=O)c1 (single isomer, unassigned; (-)) [Example 28, (-)-N-[2,3-Dihydro-5-(homopiperidin-1-yl)-1-methyl-2-oxo-1H-1,4-benzodiazepin-3-yl]-N′-[3-methylphenyl] urea] | > 3
8 | CCCN1C(=O)C(NC(=O)Nc2ccc3c(c2)CCC3)N=C(N2CCN(C)CC2)c2ccccc21 (single isomer, unassigned; (-)) [Example 34, (-)-N-[2,3-Dihydro-5-(4-methylpiperazin-1-yl)-2-oxo-1-propyl-1H-1,4-benzodiazepin-3-yl]-N′-[5-indanyl] urea] | > 3
9 | CCCN1C(=O)C(NC(=O)Nc2cccc(N(C)C)c2)N=C(N2CCN(C)CC2)c2ccccc21 (single isomer, unassigned; (-)) [Example 41, (-)-N-[2,3-Dihydro-5-(4-methylpiperazin-1-yl)-2-oxo-1-propyl-1H-1,4-benzodiazepin-3-yl]-N′-[3-(dimethylamino)phenyl] urea] | > 3
10 | Cc1cccc(NC(=O)NC2N=C(N3CCCCCCC3)c3ccccc3N(C)C2=O)c1 (single isomer, unassigned; (-)) [Example 51, (-)-N-[2,3-Dihydro-5-(heptamethyleneimin-1-yl)-1-methyl-2-oxo-1H-1,4-benzodiazepin-3-yl]-N′-[3-methylphenyl] urea hydrochloride] | 1.92
11 | CN1C(=O)C(NC(=O)Nc2ccc3c(c2)CCC3)N=C(N2CCCCCC2)c2ccccc21 (single isomer, unassigned; (-)) [Example 58, (-)-N-[2,3-Dihydro-5-(homopiperidin-1-yl)-1-methyl-2-oxo-1H-1,4-benzodiazepin-3-yl]-N′-[5-indanyl] urea hydrochloride] | 2.43
12 | CCc1cccc(NC(=O)NC2N=C(N3CCCCCC3)c3ccccc3N(C)C2=O)c1 (single isomer, unassigned; (-)) [Example 67, (-)-N-[2,3-Dihydro-5-(homopiperidin-1-yl)-1-methyl-2-oxo-1H-1,4-benzodiazepin-3-yl]-N′-[3-ethylphenyl] urea hydrochloride] | 0.31
13 | CCCN1C(=O)C(NC(=O)Nc2cccc(C)c2)N=C(N2CCSCC2)c2ccccc21 (single isomer, unassigned; (-)) [Example 69, (-)-N-[2,3-Dihydro-2-oxo-1-propyl-5-(thiomorpholin-4-yl)-1H-1,4-benzodiazepin-3-yl]-N′-[3-methylphenyl] urea hydrochloride] | 0.515
